Laboratory results: patent US8124056B2, “High throughput genetic screening of lipid and cholesterol processing using fluorescent compounds” (Trustees of the University of Pennsylvania, priority 2000, dated 2012)

Columns and labels:
[1] = tested on: mice; test: Biliary fluorescence in mice given PED6 by gavage; assay type: in vivo, mouse; details: PED6 1 μg by gavage, t=30 min
Protocol: FIG. 5. Lipid processing. […] C. Mouse digestive organs. D. Gall bladder fluorescence after processing (t=30 min) of PED6 (1 μg), administered by gavage. Symbols: gb, ball bladder; d, common bile duct; lv, liver. Scale bars, 1.0 mm (C and D), 200 μm (other images).

[2] = tested on: 5 dpf zebrafish larvae; test: Gall bladder fluorescence in 5 dpf zebrafish larvae soaked in fluorescent lipids; details: 5 dpf larvae soaked in the lipid
Protocol: A. Bright-field image of a 5 dpf larva soaked in PED6 (3 μg/ml, 2 hr). B. Corresponding fluorescent image, with intestinal (arrow) and gall bladder (arrowhead) labeling. C. Larva soaked in BODIPY-C5-PC (0.2 μg/ml).
To determine whether these reagents could be used to study organ specific PLA2 activity, the quenched fluorescent lipids were administered to zebrafish larvae at 5 dpf, a developmental stage when the major larval organ systems function (FIG. 2).
First, to establish that PED6 is swallowed by the larvae, an unquenched fluorescent lipid was administered to 5 dpf larvae, and the appearance of labeled lipid in the pharynx and intestinal lumen before the gallbladder was noted (FIGS. 3C & 4). […] Dissected adult gall bladders were lysed in embryo medium (EM) (30 μl) containing BODIPY-FL-C5-PC (0.1 μg) to release bile. PLA2 activity was determined as described (1). Measurements were compared with activity of bile-depleted gallbladders. […] Fluorescent images were captured over 1 hr using a Zeiss Axiocam 2 mounted on a Leica MZFL-III.

Compound	biliary (gall bladder) fluorescence after gavage [1]	time to gall bladder fluorescence after ingesting the lipid [2]
CCCCCCCCCCCCCCCC(=O)OC[C@H](COP(=O)(O)OCCNC(=O)CCCCCNc1ccc([N+](=O)[O-])cc1[N+](=O)[O-])OC(=O)CCCCC1=[N+]2C(=Cc3c(C)cc(C)n3[B-]2(F)F)C=C1 [PED6, N-((6-(2,4-dinitrophenyl)amino)hexanoyl)-1-palmitoyl-2-BODIPY-FL-pentanoyl-sn-glycero-3-phosphoethanolamine]	rapid appearance of biliary fluorescence	15 to 20 min
nitrobenzoxadiazole cholesterol [NDB cholesterol]	–	≤ 30 min
